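1) Cells in 96-well plates. 2) Compound, 48 h, 5 concentrations. 3) Linear interpolation between surrounding doses. 4) Unreached endpoint = highest concentration. GI50 = concentration required for 50% inhibition of growth.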 Calls of active or inactive are those of the source. Rule as the data show it: active = GI50 up to about 1.1 µM and inactive = higher.
Tests used:
Experiment in all cases: NCI-60 cell line screen, 48 h
786-0 = system: 786-0
A498 = system: A498
ACHN = system: ACHN
BT-549 = system: BT-549
CAKI-1 = system: CAKI-1
CCRF-CEM = system: CCRF-CEM
COLO 205 = system: COLO 205
DU-145 = system: DU-145
EKVX = system: EKVX
HCC 2998 = system: HCC 2998
HCT-116 = system: HCT-116
HCT-15 = system: HCT-15
HL-60 = system: HL-60
HOP-62 = system: HOP-62
HOP-92 = system: HOP-92
HT-29 = system: HT-29
Hs-578T = system: Hs-578T
IGROV-1 = system: IGROV-1
K562 = system: K562
KM12 = system: KM12
LOX IMVI = system: LOX IMVI
M14 = system: M14
MCF7 = system: MCF7
MDA-MB-231 = system: MDA-MB-231
MDA-MB-435 = system: MDA-MB-435
MOLT-4 = system: MOLT-4
NCI-H226 = system: NCI-H226
NCI-H23 = system: NCI-H23
NCI-H460 = system: NCI-H460
NCI/ADR-RES = system: NCI/ADR-RES
OVCAR-4 = system: OVCAR-4
OVCAR-8 = system: OVCAR-8
PC-3 = system: PC-3
RPMI-8226 = system: RPMI-8226
RXF 393 = system: RXF 393
SF-268 = system: SF-268
SF-295 = system: SF-295
SF-539 = system: SF-539
SK-MEL-28 = system: SK-MEL-28
SK-MEL-2 = system: SK-MEL-2
SK-MEL-5 = system: SK-MEL-5
SK-OV-3 = system: SK-OV-3
SNB-19 = system: SNB-19
SNB-75 = system: SNB-75
SR = system: SR
SW-620 = system: SW-620
T47D = system: T47D
TK-10 = system: TK-10
U-251 = system: U-251
UACC-257 = system: UACC-257
UACC-62 = system: UACC-62
UO-31 = system: UO-31
A549 = system: A549
MDA-N = system: MDA-N
Malme-3M = system: Malme-3M
NCI-H522 = system: NCI-H522
OVCAR-3 = system: OVCAR-3
OVCAR-5 = system: OVCAR-5
SN12C = system: SN12C

NC(=O)N/N=C/c1ccccc1O
GI50 (786-0): > 100 µM (inactive) | GI50 (A498): > 100 µM (inactive) | GI50 (ACHN): > 100 µM (inactive) | GI50 (BT-549): > 100 µM (inactive) | GI50 (CAKI-1): > 100 µM (inactive) | GI50 (CCRF-CEM): > 100 µM (inactive) | GI50 (COLO 205): > 100 µM (inactive) | GI50 (DU-145): > 100 µM (inactive) | GI50 (EKVX): 45 µM (inactive) | GI50 (HCC 2998): > 100 µM (inactive) | GI50 (HCT-116): > 100 µM (inactive) | GI50 (HCT-15): > 100 µM | GI50 (HL-60): 53.1 µM (inactive) | GI50 (HOP-62): > 100 µM (inactive) | GI50 (HOP-92): > 100 µM (inactive) | GI50 (HT-29): > 100 µM (inactive) | GI50 (Hs-578T): 53.6 µM (inactive) | GI50 (IGROV-1): > 100 µM (inactive) | GI50 (K562): > 100 µM (inactive) | GI50 (KM12): > 100 µM (inactive) | GI50 (LOX IMVI): > 100 µM (inactive) | GI50 (M14): > 100 µM (inactive) | GI50 (MCF7): > 100 µM (inactive) | GI50 (MDA-MB-231): > 100 µM (inactive) | GI50 (MDA-MB-435): > 100 µM (inactive) | GI50 (MOLT-4): > 100 µM (inactive) | GI50 (NCI-H226): > 100 µM (inactive) | GI50 (NCI-H23): > 100 µM (inactive) | GI50 (NCI-H460): > 100 µM (inactive) | GI50 (NCI/ADR-RES): > 100 µM (inactive) | GI50 (OVCAR-4): > 100 µM (inactive) | GI50 (OVCAR-8): > 100 µM (inactive) | GI50 (PC-3): > 100 µM (inactive) | GI50 (RPMI-8226): > 100 µM (inactive) | GI50 (RXF 393): > 100 µM (inactive) | GI50 (SF-268): > 100 µM (inactive) | GI50 (SF-295): > 100 µM (inactive) | GI50 (SF-539): > 100 µM (inactive) | GI50 (SK-MEL-28): > 100 µM (inactive) | GI50 (SK-MEL-2): > 100 µM (inactive) | GI50 (SK-MEL-5): > 100 µM (inactive) | GI50 (SK-OV-3): > 100 µM (inactive) | GI50 (SNB-19): > 100 µM (inactive) | GI50 (SNB-75): > 100 µM (inactive) | GI50 (SR): > 100 µM (inactive) | GI50 (SW-620): > 100 µM (inactive) | GI50 (T47D): > 100 µM (inactive) | GI50 (TK-10): > 100 µM (inactive) | GI50 (U-251): > 100 µM (inactive) | GI50 (UACC-257): > 100 µM (inactive) | GI50 (UACC-62): > 100 µM (inactive) | GI50 (UO-31): > 100 µM (inactive)

Cc1ccc(Nc2sc(C)cc2C#N)c([N+](=O)[O-])c1
GI50 (786-0): > 100 µM (inactive) | GI50 (A498): > 100 µM (inactive) | GI50 (A549): > 100 µM (inactive) | GI50 (ACHN): > 100 µM (inactive) | GI50 (BT-549): > 100 µM (inactive) | GI50 (CAKI-1): > 100 µM (inactive) | GI50 (CCRF-CEM): 99.8 µM (inactive) | GI50 (COLO 205): > 100 µM (inactive) | GI50 (DU-145): > 100 µM (inactive) | GI50 (EKVX): > 100 µM (inactive) | GI50 (HCC 2998): > 100 µM (inactive) | GI50 (HCT-116): > 100 µM (inactive) | GI50 (HCT-15): 67.3 µM | GI50 (HOP-62): > 100 µM (inactive) | GI50 (HOP-92): 88.9 µM (inactive) | GI50 (K562): > 100 µM (inactive) | GI50 (KM12): 93.5 µM (inactive) | GI50 (M14): > 100 µM (inactive) | GI50 (MCF7): > 100 µM (inactive) | GI50 (MDA-MB-231): > 100 µM (inactive) | GI50 (MDA-MB-435): > 100 µM (inactive) | GI50 (MDA-N): > 100 µM (inactive) | GI50 (MOLT-4): > 100 µM (inactive) | GI50 (Malme-3M): > 100 µM (inactive) | GI50 (NCI-H226): > 100 µM (inactive) | GI50 (NCI-H23): > 100 µM (inactive) | GI50 (NCI-H460): > 100 µM (inactive) | GI50 (NCI-H522): > 100 µM (inactive) | GI50 (NCI/ADR-RES): 98.9 µM (inactive) | GI50 (OVCAR-3): > 100 µM (inactive) | GI50 (OVCAR-4): > 100 µM (inactive) | GI50 (OVCAR-5): > 100 µM (inactive) | GI50 (OVCAR-8): > 100 µM (inactive) | GI50 (PC-3): > 100 µM (inactive) | GI50 (RPMI-8226): > 100 µM (inactive) | GI50 (RXF 393): 53.3 µM (inactive) | GI50 (SF-268): > 100 µM (inactive) | GI50 (SF-295): > 100 µM (inactive) | GI50 (SF-539): > 100 µM (inactive) | GI50 (SK-MEL-28): > 100 µM (inactive) | GI50 (SK-OV-3): > 100 µM (inactive) | GI50 (SN12C): > 100 µM (inactive) | GI50 (SNB-19): > 100 µM (inactive) | GI50 (SNB-75): > 100 µM (inactive) | GI50 (SR): > 100 µM (inactive) | GI50 (SW-620): > 100 µM (inactive) | GI50 (T47D): > 100 µM (inactive) | GI50 (U-251): > 100 µM (inactive) | GI50 (UACC-257): > 100 µM (inactive) | GI50 (UACC-62): > 100 µM (inactive) | GI50 (UO-31): > 100 µM (inactive)

CN(C)CCNC(=O)c1nc([N+](=O)[O-])cn1C
GI50 (786-0): > 100 µM (inactive) | GI50 (A498): > 100 µM (inactive) | GI50 (A549): > 100 µM (inactive) | GI50 (ACHN): > 100 µM (inactive) | GI50 (BT-549): > 100 µM (inactive) | GI50 (CAKI-1): > 100 µM (inactive) | GI50 (CCRF-CEM): > 100 µM (inactive) | GI50 (COLO 205): > 100 µM (inactive) | GI50 (DU-145): > 100 µM (inactive) | GI50 (HCC 2998): > 100 µM (inactive) | GI50 (HCT-116): > 100 µM (inactive) | GI50 (HCT-15): > 100 µM | GI50 (HL-60): > 100 µM (inactive) | GI50 (HOP-62): > 100 µM (inactive) | GI50 (HOP-92): > 100 µM (inactive) | GI50 (HT-29): > 100 µM (inactive) | GI50 (Hs-578T): > 100 µM (inactive) | GI50 (IGROV-1): > 100 µM (inactive) | GI50 (K562): > 100 µM (inactive) | GI50 (KM12): > 100 µM (inactive) | GI50 (LOX IMVI): > 100 µM (inactive) | GI50 (M14): > 100 µM (inactive) | GI50 (MCF7): > 100 µM (inactive) | GI50 (MDA-MB-231): > 100 µM (inactive) | GI50 (MDA-MB-435): > 100 µM (inactive) | GI50 (MOLT-4): > 100 µM (inactive) | GI50 (Malme-3M): > 100 µM (inactive) | GI50 (NCI-H23): > 100 µM (inactive) | GI50 (NCI-H460): > 100 µM (inactive) | GI50 (NCI-H522): > 100 µM (inactive) | GI50 (NCI/ADR-RES): > 100 µM (inactive) | GI50 (OVCAR-3): > 100 µM (inactive) | GI50 (OVCAR-4): > 100 µM (inactive) | GI50 (OVCAR-5): > 100 µM (inactive) | GI50 (OVCAR-8): > 100 µM (inactive) | GI50 (PC-3): > 100 µM (inactive) | GI50 (RPMI-8226): > 100 µM (inactive) | GI50 (SF-268): > 100 µM (inactive) | GI50 (SF-295): > 100 µM (inactive) | GI50 (SF-539): > 100 µM (inactive) | GI50 (SK-MEL-28): > 100 µM (inactive) | GI50 (SK-MEL-2): > 100 µM (inactive) | GI50 (SK-MEL-5): > 100 µM (inactive) | GI50 (SK-OV-3): > 100 µM (inactive) | GI50 (SN12C): > 100 µM (inactive) | GI50 (SNB-19): > 100 µM (inactive) | GI50 (SNB-75): > 100 µM (inactive) | GI50 (SR): > 100 µM (inactive) | GI50 (SW-620): > 100 µM (inactive) | GI50 (T47D): > 100 µM (inactive) | GI50 (TK-10): > 100 µM (inactive) | GI50 (U-251): > 100 µM (inactive) | GI50 (UACC-257): > 100 µM (inactive) | GI50 (UACC-62): > 100 µM (inactive) | GI50 (UO-31): > 100 µM (inactive)
